From patent US7888042B2, “Methods for identifying insulin mimetics” (Ohio University, priority 2005, dated 2011)
“And” between values parts separate entries of the source, which are not always exact repeats. Identical values can stand only once.

Columns and labels:
PI-3 kinase = PI-3 kinase activity, radioactive TLC method; assay type: cell-based; settings: CHO-IR cells
Method: (§1) (A) Glucose transport was measured by determining [^3H]-2-deoxyglucose uptake stimulated by either insulin or α-PGG in 3T3-L1 cells in the presence or absence of HNMPA-(AM)3, an inhibitor of IR tyrosine kinase activity (24); wortmannin, an inhibitor of PI 3-kinase (25), or cytochalasin B, an inhibitor of GLUT4 (26), (n=4, mean±SD). (B) Cells were induced by 20 or 40 μM α-PGG or 100 nM insulin for 15 min. Cell lysates were separated by PAGE and analyzed for phosphorylation of IR (in CHO-IR cells) or Akt (in adipocytes) using antibodies specific to the target proteins. (C) Cells were treated with α-PGG and insulin in a fashion similar to (B) and assayed for their respective PI-3 kinase activity with a radioactive TLC method (27). (D) In similar experiments, intact cells were analyzed by confocal microscopy for translocation of GLUT4 using anti-GLUT4 antibodies.
(§2) Protein phosphorylation/activation and GLUT4 translocation. To investigate signal transduction induced by α-PGG, proteins from 3T3-L1 adipocytes or CHO-IR cells (23), which were treated with α-PGG or insulin for 15 min, were isolated, separated by PAGE, blotted on nylon membranes, and analyzed by Western blotting with antibodies against either IR or Akt. […]

IR = IR phosphorylation, Western blot; assay type: cell-based, Chinese hamster; settings: CHO-IR cells, 20 or 40 μM, 15 min
Method: as §1, §2

[1] = target: T1, pure recombinant glycosylated IR (Homo sapiens, UniProt P06213); test: Surface plasmon resonance binding to IR; settings: SPR, IR bound to NTA chip; read-out: apparent binding affinity (Kd) to IR
T1 construct: purchased R&D Systems, Inc
T1 sequence (P06213 28-746 isoform P06213-2 limits assumed): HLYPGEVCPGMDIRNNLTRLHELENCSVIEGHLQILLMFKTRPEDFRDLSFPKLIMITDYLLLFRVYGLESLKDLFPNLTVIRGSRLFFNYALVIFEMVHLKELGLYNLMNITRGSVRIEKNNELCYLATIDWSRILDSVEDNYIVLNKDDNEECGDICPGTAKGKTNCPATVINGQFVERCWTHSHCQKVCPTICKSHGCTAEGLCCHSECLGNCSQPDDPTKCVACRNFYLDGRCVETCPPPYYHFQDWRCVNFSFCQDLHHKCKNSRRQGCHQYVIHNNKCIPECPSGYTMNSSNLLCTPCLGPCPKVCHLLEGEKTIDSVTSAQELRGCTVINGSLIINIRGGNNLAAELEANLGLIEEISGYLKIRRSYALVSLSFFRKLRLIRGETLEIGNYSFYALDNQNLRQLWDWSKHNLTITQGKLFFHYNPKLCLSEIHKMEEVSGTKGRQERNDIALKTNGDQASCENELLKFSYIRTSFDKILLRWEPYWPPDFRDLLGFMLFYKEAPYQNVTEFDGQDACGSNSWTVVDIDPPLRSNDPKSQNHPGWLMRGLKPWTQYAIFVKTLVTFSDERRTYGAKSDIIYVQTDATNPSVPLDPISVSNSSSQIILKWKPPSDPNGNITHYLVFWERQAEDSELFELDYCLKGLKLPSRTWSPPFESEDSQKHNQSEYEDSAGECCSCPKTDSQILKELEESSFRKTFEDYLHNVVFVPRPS
T1 sequence (P06213 763-956 limits assumed): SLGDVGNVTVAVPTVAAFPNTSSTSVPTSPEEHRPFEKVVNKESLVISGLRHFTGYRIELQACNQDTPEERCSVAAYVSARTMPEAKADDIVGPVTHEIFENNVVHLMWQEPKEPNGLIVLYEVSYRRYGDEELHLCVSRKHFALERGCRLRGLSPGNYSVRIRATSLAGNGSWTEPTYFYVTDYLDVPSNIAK
Method: (A) α-PGG binds to IR as measured by a SPR (28). Increasing concentrations of α-PGG was injected into the system to interact with the pure IR attached to the gold surface of the biosensor chip. The binding, represented in arbitrary response units, was automatically plotted against α-PGG concentrations to generate the binding curve. (B) Insulin binding to IR in the absence or presence of α-PGG. Increasing amounts of ^125I-labeled insulin were added to WGA-coated wells containing pre-bound IR isolated from CHO-IR cells in the absence of α-PGG or in the presence of 30 μM or 50 μM of α-PGG. After overnight incubation, removal of excessive ligands, and washing, the bound radioactive insulin was measured. (C) Insulin displacement by α-PGG. Fixed amounts of radioactive insulin (1 nM) were added to each of the WGA-coated wells pre-bound with IR. Increasing amounts of α-PGG were added to the wells to displace the ^125I-labeled insulin. […]
Insulin receptor binding studies. […] After sensograms of α-PGG-IR binding at different concentrations were recorded, the binding affinity was analyzed using BIAevaluation software. […] The bound ligand was detached (eluted) from the receptor with 2×200 μL 0.2M Glycine pH 2.8, and measured for its radioactivity using a Beckman Coulter LS 6400 Multi-Purpose Scintillation Counter. […] The receptor binding results were analyzed with the software GraphPad Prism.

[2] = Body weight, food intake and physical activity of treated mice; assay type: in vivo; settings: treated mice vs control mice
Method: Animal studies. Genetically diabetic db/db mice or obese ob/ob mice were purchased from Jackson Lab. Male mice of 2-3 months of age were used. Unless otherwise stated, 10 mice (N=10) were used per group. α-PGG was either orally administered or intraperitoneally (ip) injected in the form of an aqueous solution at 20 mg/kg body weight with a 1-cc sterile plastic syringe. At different times after the α-PGG administration, blood or plasma was collected from the tail vein for measurement of glucose and insulin concentrations using commercial kits. Vehicle (aqueous solution) treated mice were used as controls and were statistically compared with the α-PGG treated mice. All animal studies were conducted in accord with the Ohio University guidelines for the use and care of laboratory animals.

PI-3 kinase activity (PI-3 kinase): activates PI-3 kinase
Kd [1]: 43 µM and ~43 µM
Compound: O=C(OC[C@H]1O[C@H](OC(=O)c2cc(O)c(O)c(O)c2)[C@H](OC(=O)c2cc(O)c(O)c(O)c2)[C@@H](OC(=O)c2cc(O)c(O)c(O)c2)[C@@H]1OC(=O)c1cc(O)c(O)c(O)c1)c1cc(O)c(O)c(O)c1 [α-PGG, alpha 1,2,3,4,6-penta-O-galloyl-D-Glucopyranose]
phosphorylation of the IR (IR): induces the phosphorylation of the IR
body weight [2]: No significant changes
food intake [2]: No significant changes
physical activity [2]: No significant changes
